Source: the supplement of paper PMC10307832

Columns and labels:
Test in all cases: relative viability (nuclei count vs DMSO), 5 days (fraction); higher = more cells survive
[1] = compound: CN(C)C(=N)NC(=N)N [Metformin] + CCNC(=O)c1noc(-c2cc(C(C)C)c(O)cc2O)c1-c1ccc(CN2CCOCC2)cc1 [Luminespib] (partner 0.01 µM)
Summary of the method: (§1)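 A single step with final 0.05% Triton X-100, 1% formaldehyde and 1 ug/ml Hoechst fixed the cells and stained nuclei 5 days after treatment. Lung cancer cell lines in 1536-well plates had been treated by pin tool the day after seeding with one drug alone or a fixed anchor-drug dose plus five library-drug doses (not always all listed) in √10 steps, and nuclei were counted on 4× images. Relative viability is the ratio of nuclei in treated wells to nuclei in vehicle wells, taken as the median of duplicate plates.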

[2] = compound: N#CC1(c2ccc(NC(=O)c3cccnc3NCc3ccncc3)cc2)CCCC1 [Apatinib] + COc1cccc2cc(-c3nc([C@H]4CC[C@H](C(=O)O)CC4)n4ncnc(N)c34)[nH]c12 [OSI-027] (partner 0.5 µM)
Summary of the method: as §1

[3] = compound: CN(C)C(=N)NC(=N)N [Metformin] + CS(=O)(=O)N1CCN(Cc2cc3nc(-c4cccc5[nH]ncc45)nc(N4CCOCC4)c3s2)CC1 [Pictilisib] (partner 1 µM)
Summary of the method: as §1

[4] = compound: N#CC1(c2ccc(NC(=O)c3cccnc3NCc3ccncc3)cc2)CCCC1 [Apatinib] + NC(=O)Nc1cc(-c2cccc(F)c2)sc1C(=O)N[C@H]1CCCNC1 [AZD7762] (partner 0.2 µM)
Summary of the method: as §1

Cell Line | relative viability ([1]; first compound 10 µM) | relative viability ([1]; first compound 31.62 µM) | relative viability ([1]; first compound 100 µM) | relative viability ([1]; first compound 316.23 µM) | relative viability ([1]; first compound 1000 µM) | relative viability ([2]; first compound 0.253 µM) | relative viability ([2]; first compound 0.8 µM) | relative viability ([2]; first compound 2.53 µM) | relative viability ([2]; first compound 8 µM) | relative viability ([3]; first compound 31.62 µM) | relative viability ([3]; first compound 100 µM) | relative viability ([3]; first compound 316.23 µM) | relative viability ([3]; first compound 1000 µM) | relative viability ([4]; first compound 0.253 µM) | relative viability ([4]; first compound 0.8 µM) | relative viability ([4]; first compound 2.53 µM) | relative viability ([4]; first compound 8 µM) | relative viability ([2]; first compound 0.08 µM) | relative viability ([3]; first compound 10 µM) | relative viability ([4]; first compound 0.08 µM)
ABC-1 | 0.481 | 0.694 | 0.883 | 0.306 | 0.371 | 0.543 | 0.453 | 0.499 | 0.336 | 0.76 | 0.787 | 0.643 | 0.265 | 0.687 | 0.882 | 0.767 | 0.727 | – | – | –
LK-2 | 0.203 | 0.17 | 0.196 | 0.2 | 0.191 | 0.197 | 0.157 | 0.205 | 0.167 | 0.757 | 0.811 | 0.61 | 0.769 | 0.468 | 0.302 | 0.155 | 0.248 | 0.217 | 0.707 | 0.262
NCI-H1915 | – | 0.724 | 0.835 | 0.785 | 0.795 | 0.614 | 0.672 | 0.537 | 0.503 | 1.08 | 0.95 | 0.919 | 0.933 | 0.685 | 0.648 | 0.567 | 0.505 | 0.67 | – | 0.733
NCI-H23 | 0.207 | 0.244 | 0.218 | 0.272 | 0.214 | 0.658 | 0.535 | 0.46 | 0.377 | 0.604 | 0.527 | 0.614 | 0.654 | 0.193 | 0.21 | 0.134 | 0.108 | 0.637 | 0.505 | 0.275
NCI-H596 | 0.98 | 1.18 | 1.08 | 1.02 | 1.06 | 0.656 | 0.653 | 0.486 | 0.545 | 0.479 | 0.468 | 0.452 | 0.421 | 1.04 | 0.863 | 0.944 | 0.901 | 0.795 | 0.431 | 1.09
NCI-H1734 | 0.145 | 0.2 | 0.206 | 0.181 | 0.19 | 0.597 | 0.578 | 0.495 | 0.453 | 0.48 | 0.462 | 0.407 | 0.495 | 0.594 | 0.548 | 0.439 | 0.389 | 0.597 | 0.464 | 0.597
NCI-H2405 | 0.585 | 0.581 | 0.774 | 0.664 | 0.737 | 0.579 | 0.714 | 0.604 | 0.626 | 0.518 | 0.322 | 0.373 | 0.389 | 0.859 | 0.713 | 0.55 | 0.609 | 0.621 | 0.469 | 0.773
NCI-H727 | 0.566 | 0.496 | 0.387 | – | 0.477 | 0.565 | 0.533 | 0.642 | 0.466 | 0.514 | 0.6 | 0.317 | 0.451 | – | 0.548 | 0.456 | 0.49 | 0.55 | 0.389 | 0.487
NCI-H1666 | 1.06 | 1.11 | 1.16 | 1.06 | 1.16 | 0.826 | 0.797 | 0.73 | 0.755 | 0.536 | 0.352 | 0.356 | 0.467 | 0.871 | 0.776 | 0.769 | 0.746 | 0.883 | 0.481 | 0.828
NCI-H1755 | 0.504 | 0.565 | 0.475 | 0.419 | 0.418 | 0.729 | 0.699 | 0.672 | 0.523 | 0.402 | 0.471 | 0.412 | 0.336 | 0.449 | 0.366 | 0.375 | 0.335 | 0.838 | 0.366 | 0.442
201T | – | 1.15 | 1.1 | 1.06 | 1.03 | 0.763 | 0.718 | 0.723 | 0.751 | 0.709 | 0.701 | 0.688 | 0.685 | 0.701 | 0.565 | 0.5 | 0.471 | – | – | 0.691
NCI-H838 | 0.258 | 0.289 | 0.291 | 0.237 | 0.251 | 0.393 | 0.361 | 0.357 | 0.422 | 0.543 | 0.477 | 0.494 | 0.682 | 0.957 | 0.941 | 0.885 | 0.865 | 0.456 | 0.535 | 0.979
HOP-62 | 0.77 | 0.878 | 0.849 | 0.85 | 0.796 | 0.874 | 0.799 | 0.714 | 0.605 | 0.656 | 0.786 | 0.531 | 0.657 | 0.536 | 0.453 | 0.361 | 0.348 | 0.917 | 0.739 | 0.676
LC-2-ad | – | 0.858 | 0.934 | 0.683 | 0.647 | 0.761 | 0.828 | 0.813 | 0.68 | 0.471 | 0.334 | 0.426 | 0.408 | 0.892 | 0.779 | 0.825 | 0.799 | 0.752 | – | 0.86
NCI-H2170 | 0.571 | 0.677 | 0.766 | 0.68 | 0.632 | 0.752 | 0.692 | 0.594 | 0.674 | 0.283 | 0.301 | 0.31 | 0.264 | 0.901 | 0.719 | 0.721 | 0.706 | 0.803 | 0.3 | 0.871
LCLC-97TM1 | 0.75 | 0.861 | 0.922 | 0.7 | 0.76 | 0.427 | 0.456 | 0.395 | 0.329 | 0.196 | 0.255 | 0.234 | 0.223 | 0.263 | 0.204 | 0.19 | 0.311 | 0.516 | 0.257 | 0.233
NCI-H1993 | 0.994 | 1.09 | 0.713 | 0.856 | 0.934 | 0.596 | 0.549 | 0.49 | 0.494 | 0.783 | 0.778 | 0.699 | 0.747 | 0.7 | 0.648 | 0.576 | 0.638 | 0.627 | 0.672 | 0.869
